Measured values as given in publication PMC9005971, “Discovery of 2-(4-Acrylamidophenyl)-Quinoline-4-Carboxylic Acid Derivatives as Potent SIRT3 Inhibitors” (Frontiers in Chemistry, 2022).

Key:
THP-1 cells [1] = test: In vitro antiproliferative CCK-8 assay, THP-1; format: cell-based; settings: Homo sapiens
Experimental: (§1) The proliferation of THP-1, MOLM-13, SEM and MV4-11 cells was tested by CCK-8 assay. Briefly, cells were seeded in 96-well plate with about 5 × 10^3 cells in each well. The cells were treated with P6 or Ara-C (0–10 µM) after 24 h of incubation. CCK-8 reagent ([…]) was added to each well after 72 h of incubation, and cells were incubated at 37°C for 4 h. The light absorbance at 450 nm was measured by using an Opsys microplate reader (Dynex Technologirs, Chantilly, VA, United States). Results are illustrated as percent of cell viability normalized to DMSO-treated control cells.

[2] = system: THP-1, MOLM-13, SEM and MV4-11 cells; test: Colony formation assay, MLLr leukemic cells; format: cell-based; settings: 0.2–2.0 µM, 12 days
Experimental: (§2) THP-1, MOLM-13, SEM and MV4-11 cells were cultured with P6 (0–2.0 µM) in 2.6% methycellulose medium containing 10% FBS in a 24-well flat-bottomed plate for 12 days ([Qu et al., 2021]). The number of individual colonies consisting of more than approximately 50 cells was counted by a CX43 microscope (Olympus, Shinjuku-ku, Tokyo, Japan) with an Olympus EP50 camera (Olympus, Shinjuku-ku, Tokyo, Japan).

[3] = system: THP-1, MOLM-13, SEM and MV4-11 cells; test: Cell cycle analysis, MLLr leukemic cells; format: cell-based; settings: 0.9–2.0 µM
Experimental: THP-1, MOLM-13, SEM and MV4-11 cells were incubated with 1.0 (THP-1, MOLM-13 cells) and 2.0 (SEM and MV4-11 cells) µM of P6 for 72 h. After treatment, cells were collected and fixed with 70% pre-cold ethanol in PBS and stored at −20°C for at least 24 h. Then the cells were stained with […] RNase A for 30 min in the dark at room temperature. Finally, flow cytometry was used to detect the percentage of cells in the sub-G1, G0/G1, S, and G2/M phases with a Beckman Coulter DxFLEX flow cytometer (Florida, Miami, USA). The data was analyzed and fitted by ModFit software.

SIRT1 = molecular target: T1, SIRT1 (Homo sapiens, UniProt Q96EB6); test: SIRT1 enzyme inhibitory assay (fluorescence); format: biochemical; settings: for activity at 0.01 µM / activity at 0.033 µM / activity at 0.1 µM / activity at 0.333 µM / activity at 1 µM / activity at 3.3 µM / activity at 10 µM / activity at 33 µM / activity at 100 µM: SIRT1 enzyme activity; for activity at 0.01 µM: 10 nM; for activity at 0.033 µM: 33 nM; for activity at 0.1 µM: 100 nM; for activity at 0.333 µM: 333 nM
T1 sequence (Q96EB6 1-747): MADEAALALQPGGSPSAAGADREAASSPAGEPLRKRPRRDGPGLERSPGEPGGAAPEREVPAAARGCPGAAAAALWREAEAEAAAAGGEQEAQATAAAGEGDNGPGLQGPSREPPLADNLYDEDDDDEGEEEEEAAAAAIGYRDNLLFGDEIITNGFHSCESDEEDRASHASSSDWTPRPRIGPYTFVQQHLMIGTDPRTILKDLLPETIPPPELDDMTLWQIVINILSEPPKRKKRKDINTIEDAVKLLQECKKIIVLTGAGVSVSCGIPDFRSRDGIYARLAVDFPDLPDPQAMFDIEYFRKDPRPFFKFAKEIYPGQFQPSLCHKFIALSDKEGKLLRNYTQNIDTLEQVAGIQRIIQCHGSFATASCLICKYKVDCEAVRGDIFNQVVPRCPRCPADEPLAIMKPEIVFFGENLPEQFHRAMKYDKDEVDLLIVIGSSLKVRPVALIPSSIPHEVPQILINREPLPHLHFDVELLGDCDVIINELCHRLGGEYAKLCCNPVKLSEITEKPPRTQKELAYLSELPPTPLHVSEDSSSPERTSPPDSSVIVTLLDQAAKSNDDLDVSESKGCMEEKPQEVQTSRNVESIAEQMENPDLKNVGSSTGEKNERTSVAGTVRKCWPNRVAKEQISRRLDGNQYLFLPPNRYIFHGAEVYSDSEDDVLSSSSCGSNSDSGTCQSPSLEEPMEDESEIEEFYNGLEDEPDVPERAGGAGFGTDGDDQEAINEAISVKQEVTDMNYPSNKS
Experimental: All of the enzymatic reactions were conducted at 37°C for 30 min. […] The compounds were diluted in 10% DMSO and 5 ul of the dilution was added to each reaction mixture (50 ul). The assay was performed by quantitating the amount of fluorescent product generated from the enzyme reaction. Fluorescence intensity is then analyzed at excitation wavelength of 350–360 nm and emission wavelength of 450–460 nm on a SpectraMax M5 microtiter plate reader. The IC50 values were calculated using Prism GraphPad software.

MV4-11 cells = test: In vitro antiproliferative CCK-8 assay, MV4-11; format: cell-based; settings: Homo sapiens, 72 h, read-out: IC50 growth inhibition MV4-11
Experimental: as §1

SEM cells = test: In vitro antiproliferative CCK-8 assay, SEM; format: cell-based; settings: 72 h, read-out: IC50 growth inhibition SEM
Experimental: as §1

THP-1 cells [4] = test: Colony formation assay, THP-1; format: cell-based; settings: 12 days
Experimental: as §2

## C=CC(=O)Nc1ccc(-c2cc(C(=O)N3CCN(c4ccccc4F)CC3)c3ccccc3n2)cc1 [Compound P6, N-(4-{4-[4-(2-Fluoro-phenyl)-piperazine-1-carbonyl]-quinolin-2-yl}-phenyl)-acrylamide]
THP-1 cells [1]; 72 h, CCK-8, read-out: IC50 growth inhibition THP-1
  IC50: 870 nM
THP-1 cells [1]; dose of 1 μM, mean of three experiments, read-out: THP-1 percentage inhibitory rate
  inhibition at 1 µM: 85.9 ± 3.42%
[2]
  effect on number of colonies: significantly reduce the number of colonies with a dose dependent manner
[3]
  effect on cell cycle progression: capable of causing MLLr leukemic cell cycle arrest at G0/G1 phase
SIRT1; Repeat1
  activity at 0.01 µM: 98%
  activity at 0.033 µM: 97%
  activity at 0.1 µM: 100%
  activity at 0.333 µM: 101%
  activity at 1 µM: 97%
  activity at 3.3 µM: 91%
  activity at 10 µM: 61%
  activity at 33 µM: 42%
  activity at 100 µM: 25%
SIRT1; Repeat2
  activity at 0.01 µM: 102%
  activity at 0.033 µM: 98%
  activity at 0.1 µM: 97%
  activity at 0.333 µM: 95%
  activity at 1 µM: 89%
  activity at 3.3 µM: 85%
  activity at 10 µM: 64%
  activity at 33 µM: 40%
  activity at 100 µM: 26%
SIRT1; mean of two experiments
  IC50: 32.6 ± 0.8 µM
MV4-11 cells
  IC50: 1900 nM
SEM cells
  IC50: 1790 nM
THP-1 cells [4]; THP-1, 0.2 µM
  colony formation percentage: 93.2
THP-1 cells [4]; THP-1, 0.4 µM
  colony formation percentage: 13.4
THP-1 cells [4]; THP-1, 0.8 µM
  colony formation percentage: 4.1
